# Literature values, collected in US20070281020A1, “PHARMACEUTICAL COMPOSITIONS FOR SUSTAINED RELEASE OF PHENYLEPHRINE” (priority 2006, published 2007).
# Conditions: active metabolite of loratadine
compound,measurement,value
Clc1ccc2c(c1)CCc1cccnc1C2=C1CCNCC1 [desloratadine],half-life (t1/2),15 to 19 h
